# Active and inactive are the calls of the source. No cut-off for these calls is given here.
# What was measured:
# [1] = Mutagenicity in Salmonella typhimurium TA100 assessed as mutagenic index at 50 uM/plate after 48 hrs in absence of S9 fraction by Ames test relative to control; assay type: toxicity; settings: salmonella enterica subsp. enterica serovar typhimurium, s9, 48 h
# [2] = Acute toxicity in ig dosed BALB/c mouse assessed as mortality measured for 14 days; assay type: organism-based; settings: in vivo, po
# Rattus norvegicus [3] = experiment: Antidiabetic activity in STZ-induced diabetic Wistar rat blood assessed as creatinine level at 15 mg/kg, po administered for 15 days (reference value: 0.56 +/- 0.03 mg/dl); assay type: functional
# Rattus norvegicus [4] = experiment: Antidiabetic activity in STZ-induced diabetic Wistar rat assessed as increase in fasting blood glucose level at 15 mg/kg, po administered for 15 days post STZ challenge measured on day 21 by glucometry; assay type: functional
# Rattus norvegicus [5] = experiment: Antidiabetic activity in STZ-induced diabetic Wistar rat blood assessed as LDL level at 15 mg/kg, po administered for 15 days (reference value: 23.11 +/- 9.82 mg/dl); assay type: functional
# [6] = Mutagenicity in Salmonella typhimurium TA100 assessed as mutagenic index at 34.60 uM/plate after 48 hrs in presence of S9 fraction by Ames test relative to control; assay type: toxicity, subcellular; settings: salmonella enterica subsp. enterica serovar typhimurium, s9, 48 h, 34.6 µM
# Rattus norvegicus [7] = experiment: Antioxidant activity in STZ-induced diabetic Wistar rat liver assessed as SOD level measured per mg of protein at 15 mg/kg, po administered for 15 days by NBT reduction test (reference value: 0.22 +/- 0.06 microM/min); assay type: functional
# [8] = Mutagenicity in Salmonella typhimurium TA102 assessed as mutagenic index at 50 uM/plate after 48 hrs in presence of S9 fraction by Ames test relative to control; assay type: toxicity, subcellular; settings: salmonella enterica subsp. enterica serovar typhimurium, s9, 48 h
# [9] = Genotoxicity in BALB/c mouse blood at 300 mg/kg after 48 hrs by micronucleus assay; assay type: toxicity, organism-based; settings: in vivo
# [10] = Toxicity in STZ-induced diabetic Wistar rat liver assessed as macroscopic pathologic lesions at 15 mg/kg, po administered for 15 days; assay type: organism-based; settings: in vivo, 360 h
# Rattus norvegicus [11] = experiment: Antioxidant activity in STZ-induced diabetic Wistar rat liver assessed as glutathione peroxidase level measured as NADPH consumption per mg of protein at 15 mg/kg, po administered for 15 days (reference value: 10 +/- 0.6 microM/min); assay type: functional
# Rattus norvegicus [12] = experiment: Antioxidant activity in STZ-induced diabetic Wistar rat liver assessed as catalase level measured as H2O2 consumption per mg of protein at 15 mg/kg, po administered for 15 days (reference value: 68.9 +/- 11.1 microM/min); assay type: functional
# [13] = Mutagenicity in Salmonella typhimurium TA100 assessed as mutagenic index at 17.30 uM/plate after 48 hrs in presence of S9 fraction by Ames test relative to control; assay type: toxicity, subcellular; settings: salmonella enterica subsp. enterica serovar typhimurium, s9, 48 h, 17.3 µM
# [14] = Mutagenicity in Salmonella typhimurium TA102 assessed as mutagenic index at 34.60 uM/plate after 48 hrs in absence of S9 fraction by Ames test relative to control; assay type: toxicity; settings: salmonella enterica subsp. enterica serovar typhimurium, s9, 48 h, 34.6 µM
# [15] = Mutagenicity in Salmonella typhimurium TA98 assessed as mutagenic index at 8.65 uM/plate after 48 hrs in absence of S9 fraction by Ames test relative to control; assay type: toxicity; settings: salmonella enterica subsp. enterica serovar typhimurium, s9, 48 h
# [16] = Mutagenicity in Salmonella typhimurium TA100 assessed as mutagenic index at 17.30 uM/plate after 48 hrs in absence of S9 fraction by Ames test relative to control; assay type: toxicity; settings: salmonella enterica subsp. enterica serovar typhimurium, s9, 48 h, 17.3 µM
# Rattus norvegicus [17] = experiment: Antidiabetic activity in STZ-induced diabetic Wistar rat assessed as effect on hepatocytes surrounding central vein architecture at 15 mg/kg, po administered for 15 days by hematoxylin/eosin staining based microscopy; assay type: functional, organism-based
# Rattus norvegicus [18] = experiment: Antidiabetic activity in STZ-induced diabetic Wistar rat blood assessed as urea level at 15 mg/kg, po administered for 15 days (reference value: 62.98 +/- 6.21 mg/dl); assay type: functional
# [19] = Mutagenicity in Salmonella typhimurium TA98 assessed as mutagenic index at 34.60 uM/plate after 48 hrs in absence of S9 fraction by Ames test relative to control; assay type: toxicity; settings: salmonella enterica subsp. enterica serovar typhimurium, s9, 48 h, 34.6 µM
# [20] = Mutagenicity in Salmonella typhimurium TA98 assessed as mutagenic index at 100 uM/plate after 48 hrs in absence of S9 fraction by Ames test relative to control; assay type: toxicity; settings: salmonella enterica subsp. enterica serovar typhimurium, s9, 48 h
# Rattus norvegicus [21] = experiment: Antidiabetic activity in STZ-induced diabetic Wistar rat assessed as body weight at 15 mg/kg, po administered for 15 days post STZ challenge measured on day 21 (reference value: 319.4 +/- 6.9 g); assay type: functional
# [22] = Mutagenicity in Salmonella typhimurium TA98 assessed as mutagenic index at 50 uM/plate after 48 hrs in absence of S9 fraction by Ames test relative to control; assay type: toxicity; settings: salmonella enterica subsp. enterica serovar typhimurium, s9, 48 h
# Rattus norvegicus [23] = experiment: Antidiabetic activity in STZ-induced diabetic Wistar rat assessed as increase in beta cells at 15 mg/kg, po administered for 15 days by fluorescence microscopy; assay type: functional, organism-based
# [24] = Mutagenicity in Salmonella typhimurium TA98 assessed as mutagenic index at 8.65 uM/plate after 48 hrs in presence of S9 fraction by Ames test relative to control; assay type: toxicity, subcellular; settings: salmonella enterica subsp. enterica serovar typhimurium, s9, 48 h
# [25] = Mutagenicity in Salmonella typhimurium TA100 assessed as mutagenic index at 100 uM/plate after 48 hrs in absence of S9 fraction by Ames test relative to control; assay type: toxicity; settings: salmonella enterica subsp. enterica serovar typhimurium, s9, 48 h
# [26] = Mutagenicity in Salmonella typhimurium TA100 assessed as mutagenic index at 34.60 uM/plate after 48 hrs in absence of S9 fraction by Ames test relative to control; assay type: toxicity; settings: salmonella enterica subsp. enterica serovar typhimurium, s9, 48 h, 34.6 µM
# Rattus norvegicus [27] = experiment: Antidiabetic activity in STZ-induced diabetic Wistar rat assessed as change in fasting blood glucose level at 15 mg/kg, po administered on day 7 post STZ challenge measured immediately post dosage by glucometry (reference value: 72.90 +/- 5.2 mg/dl); assay type: functional
# [28] = Acute toxicity in BALB/c mouse assessed as increase in body weight at 2000 mg/kg, ig after 14 days (reference value: 13.3 +/- 0.3g); assay type: organism-based; settings: in vivo, po, 336 h
# [29] = Mutagenicity in Salmonella typhimurium TA102 assessed as mutagenic index at 100 uM/plate after 48 hrs in absence of S9 fraction by Ames test relative to control; assay type: toxicity; settings: salmonella enterica subsp. enterica serovar typhimurium, s9, 48 h
# [30] = Mutagenicity in Salmonella typhimurium TA100 assessed as mutagenic index at 8.65 uM/plate after 48 hrs in absence of S9 fraction by Ames test relative to control; assay type: toxicity; settings: salmonella enterica subsp. enterica serovar typhimurium, s9, 48 h
# Rattus norvegicus [31] = experiment: Antidiabetic activity in STZ-induced diabetic Wistar rat liver assessed as effect on central vein architecture at 15 mg/kg, po administered for 15 days by hematoxylin/eosin staining based microscopy; assay type: functional, organism-based
# [32] = Mutagenicity in Salmonella typhimurium TA100 assessed as mutagenic index at 50 uM/plate after 48 hrs in presence of S9 fraction by Ames test relative to control; assay type: toxicity, subcellular; settings: salmonella enterica subsp. enterica serovar typhimurium, s9, 48 h
# Rattus norvegicus [33] = experiment: Antidiabetic activity in STZ-induced diabetic Wistar rat assessed as change in fasting blood glucose level at 15 mg/kg, po administered for 15 days post STZ challenge measured on day 21 by glucometry (reference value: 72.90 +/- 5.2 mg/dl); assay type: functional
# [34] = Toxicity in STZ-induced diabetic Wistar rat kidney assessed as macroscopic pathologic lesions at 15 mg/kg, po administered for 15 days; assay type: organism-based; settings: in vivo, 360 h
smiles,measurement,setting,value
CC(=O)O[C@@H]1c2c(ccc3ccc(=O)oc23)OC(C)(C)[C@@H]1OC(C)=O (relative stereo) [QUIANHUCOUMARIN D],Ratio,[1],0.9
same,LD50 at 336 h,[2],> 2000 mg/kg
same,Activity,Rattus norvegicus [3],0.51 mg/dL
same,Activity,Rattus norvegicus [4],55.35 mg/dL
same,Activity,Rattus norvegicus [5],22.38 mg/dL
same,Ratio,[6],0.8
same,Activity,Rattus norvegicus [7],0.73 U/min
same,Ratio,[8],1.2
same,Activity,[9],Non-Toxic
same,Activity,[10],Non-Toxic
same,Activity,Rattus norvegicus [11],119 µM/min
same,Activity,Rattus norvegicus [12],94.8 µM/min
same,Ratio,[13],0.9
same,Ratio,[14],1
same,Ratio,[15],0.7
same,Ratio,[16],1
same,Activity,Rattus norvegicus [17],Active
same,Activity,Rattus norvegicus [18],42.04 mg/dL
same,Ratio,[19],0.8
same,Ratio,[20],0.4
same,Activity,Rattus norvegicus [21],365.1 g
same,Ratio,[22],1.1
same,Activity,Rattus norvegicus [23],Active
same,Ratio,[24],1.1
same,Ratio,[25],1.4
same,Ratio,[26],1
same,Activity,Rattus norvegicus [27],363.2 mg/dL
same,Activity,[28],13 g
same,Ratio,[29],0.8
same,Ratio,[30],1.3
same,Activity,Rattus norvegicus [31],Active
same,Ratio,[32],0.9
same,Activity,Rattus norvegicus [33],128.3 mg/dL
same,Activity,[34],Non-Toxic
